Results published in ChEMBL document CHEMBL1135317, “Halogenated indole-3-acetic acids as oxidatively activated prodrugs with potential for targeted cancer therapy” (2002).

Assays:
V79 [1] = test: Cytotoxicity against Chinese hamster lung fibroblasts (V79 cells) was determined by a clonogenic assay (colonies containing >50 cells were counted and surviving fractions (SF) calculated after 2 hr incubation); assay type: functional, Cricetulus griseus
[2] = Rate constant for oxidation by HRP (horseradish peroxidase) was determined
V79 [3] = test: Cytotoxicity against Chinese hamster lung fibroblasts (V79 cells) was determined by a clonogenic assay and colonies containing >50 cells were counted and surviving fractions (SF) calculated after 2 h incubation at 50 uM of prodrug; assay type: functional, Cricetulus griseus

| Structure (SMILES) | Surviving fraction (V79 [1]) | Rate constant (k) [2] | Surviving fraction (V79 [3]) |
| --- | --- | --- | --- |
| O=C(O)Cc1c[nH]c2c(F)cc(Cl)cc12 | 1 | – | – |
| Cc1ccc(F)c2[nH]cc(CC(=O)O)c12 | 1 | – | – |
| Cn1cc(CC(=O)O)c2cc(F)ccc21 | 1 | – | – |
| COc1ccc2[nH]c(C)c(CC(=O)O)c2c1 [DESCHLOROBENZOYL INDOMETHACIN] | 0.04 | 1710 Ie3 M-1 s-1 | – |
| Cn1cc(CC(=O)O)c2ccc(Cl)cc21 | 1 | – | – |
| O=C(O)Cc1c[nH]c2c(Cl)cccc12 | 4e-05 | – | – |
| O=C(O)Cc1c[nH]c2ccc(F)cc12 | <1e-05 | – | – |
| O=C(O)Cc1c[nH]c2cc(Cl)cc(Cl)c12 | 1 | – | – |
| O=C(O)Cc1c[nH]c2ccc(-c3ccccc3)cc12 | 1 | – | – |
| Cc1ccc2[nH]cc(CC(=O)O)c2c1 | 1 | – | – |
| O=C(O)Cc1c[nH]c2ccccc12 [INDOLE-3-ACETIC ACID] | 0.01 | – | – |
| O=C(O)Cc1c[nH]c2ccc(-c3ccc(Cl)cc3)cc12 | 1 | 103 Ie3 M-1 s-1 | – |
| O=C(O)Cc1c[nH]c2ccc(I)cc12 | 1 | – | – |
| O=C(O)Cc1c[nH]c2ccc(Cl)cc12 | 0.003 | – | – |
| O=C(O)Cc1c[nH]c2ccc(OC(F)(F)F)cc12 | 1 | – | – |
| Cn1cc(CC(=O)O)c2ccccc21 | 0.01 | – | – |
| O=C(O)Cc1c[nH]c2cc(F)ccc12 | 0.01 | – | – |
| O=C(O)Cc1c[nH]c2cccc(Cl)c12 | 1 | – | – |
| O=C(O)Cc1c[nH]c2cccc(F)c12 | 9e-05 | – | – |
| Cc1[nH]c2ccc(F)cc2c1CC(=O)O | 1 | – | – |
| Cc1cc(F)c2[nH]cc(CC(=O)O)c2c1 | 1 | – | – |
| COc1ccc2[nH]cc(CC(=O)O)c2c1 | 0.2 | – | – |
| Cc1[nH]c2ccccc2c1CC(=O)O | 0.004 | 435 Ie3 M-1 s-1 | – |
| O=C(O)Cc1c[nH]c2cc(Cl)ccc12 | <1e-05 | – | 0.00085 |
